In series [1] the test system is fungal. Nature of the series: Anti-fungal activity, dispersed particle form vs. dissolved in an effective solvent.
The test system of series [2] is fungal. The settings on record: cited from earlier work.
For series [3] the following is noted: cited from earlier work.

With `Cc1ccc(S(=O)(=O)C(I)I)cc1` [diiodomethyl-p-tolylsulfone, Benzene, 1-[(diiodomethyl)sulfonyl]-4-methyl-(9CI)], the “activity retained in dispersed particle form vs. dissolved in an effective solvent” value in the series with fungal [1] is “about 100%”. Further, the “pH range over which effective” value in the series with fungal [2] is listed as 2-11 pH. The water solubility result in series [3] is reported as “less than 5 ppm”.

The values are drawn from patent publication US20060171911A1, “Diiodomethyl-p-tolylsulfone as a particulate dispersion in a liquid solvent in combination with an anti-dandruff active” (priority 2005, published 2006).
